The source made the active and inactive calls. The rule behind the calls is not given here.
Legend:
[1] = Selectivity index, ratio of GI50 for human A549 cells pretreated for 1 hr with NQO1 inhibitor, dicoumarol followed by incubation with compound for 48 hrs to GI50 for human A549 cells measured after 48 hrs by MTT assay; format: functional
HepG2 [2] = test: Induction of cell cycle arrest in human HepG2 cells assessed as increase in accumulation at S/G2 phase incubated for 24 hrs by PI staining based flow cytometry analysis; format: functional; details: dose 0.75-3 µM
HepG2 [3] = test: Induction of apoptosis in human HepG2 cells assessed as early apoptotic cells at 2.2 uM incubated for 24 hrs by annexinV-FITC and PI staining based flow cytometry analysis (reference value: 2.65 %); format: functional
HepG2 [4] = test: Induction of apoptosis in human HepG2 cells assessed as viable cells at 2.2 uM incubated for 24 hrs in presence of dicoumarol by annexinV-FITC and PI staining based flow cytometry analysis (reference value: 94.73 %); format: functional; details: read-out: Activity
[5] = biological target: NAD(P)H dehydrogenase [quinone] 1 (Homo sapiens) (UniProt P15559); test: Substrate activity at recombinant human C-terminal His-tagged NQO1 (1 to 274 residues) expressed in Escherichia coli assessed as enzyme activity by measuring oxidation of NADPH incubated for 5 mins measured every 5 sec for 1 mins by UV-visible spectrophotometry relative to beta-lapachone
MCF7 = test: Cytotoxicity against NQO1-rich human MCF7 cells assessed as reduction in cell growth incubated for 48 hrs by MTT assay; format: functional
HepG2 [6] = test: Cytotoxicity against human HepG2 cells assessed as reduction in cell growth incubated for 48 hrs by MTT assay; format: functional
A549 [7] = test: Cytotoxicity against human A549 cells assessed as reduction in cell growth incubated for 48 hrs by MTT assay; format: functional
HepG2 [8] = test: Cytotoxicity against human HepG2 cells assessed as reduction in cell growth pretreated for 1 hr with NQO1 inhibitor, dicoumarol followed by incubation with compound for 48 hrs by MTT assay; format: functional
A549 [9] = test: Cytotoxicity against human A549 cells assessed as reduction in cell growth pretreated for 1 hr with NQO1 inhibitor, dicoumarol followed by incubation with compound for 48 hrs by MTT assay; format: functional
A549 [10] = test: Cytotoxicity against human A549 cells assessed as reduction in cell growth pretreated for 1 hr with ROS scavenger, N-acetyl cysteine followed by incubation with compound for 48 hrs by MTT assay; format: functional
[11] = Cytotoxicity against human L02 cells assessed as reduction in cell growth incubated for 48 hrs by MTT assay; format: cell-based
HepG2 [12] = test: Induction of cell cycle arrest in human HepG2 cells assessed as accumulation at S/G2 phase at 3 uM incubated for 24 hrs by PI staining based flow cytometry analysis (reference value: 35.2 %); format: functional
HepG2 [13] = test: Induction of apoptosis in human HepG2 cells incubated for 24 hrs by annexinV-FITC and PI staining based flow cytometry analysis; format: functional, cell-based; details: dose 1.1-4.4 µM
HepG2 [14] = test: Induction of apoptosis in human HepG2 cells assessed as viable cells at 1.1 uM incubated for 24 hrs by annexinV-FITC and PI staining based flow cytometry analysis (reference value: 94.73 %); format: functional; details: read-out: Activity
HepG2 [15] = test: Induction of apoptosis in human HepG2 cells assessed as late apoptotic cells at 1.1 uM incubated for 24 hrs by annexinV-FITC and PI staining based flow cytometry analysis (reference value: 2.27 %); format: functional
HepG2 [16] = test: Induction of apoptosis in human HepG2 cells assessed as necrotic cells at 1.1 uM incubated for 24 hrs by annexinV-FITC and PI staining based flow cytometry analysis (reference value: 0.35 %); format: functional
HepG2 [17] = test: Induction of apoptosis in human HepG2 cells assessed as viable cells at 2.2 uM incubated for 24 hrs by annexinV-FITC and PI staining based flow cytometry analysis (reference value: 94.73 %); format: functional; details: read-out: Activity
HepG2 [18] = test: Induction of apoptosis in human HepG2 cells assessed as viable cells at 4.4 uM incubated for 24 hrs by annexinV-FITC and PI staining based flow cytometry analysis (reference value: 94.73 %); format: functional; details: read-out: Activity
HepG2 [19] = test: Induction of apoptosis in human HepG2 cells assessed as early apoptotic cells at 4.4 uM incubated for 24 hrs by annexinV-FITC and PI staining based flow cytometry analysis (reference value: 2.65 %); format: functional
HepG2 [20] = test: Induction of apoptosis in human HepG2 cells assessed as necrotic cells at 4.4 uM incubated for 24 hrs by annexinV-FITC and PI staining based flow cytometry analysis (reference value: 0.35 %); format: functional
HepG2 [21] = test: Induction of apoptosis in human HepG2 cells assessed as necrotic cells at 2.2 uM incubated for 24 hrs in presence of dicoumarol by annexinV-FITC and PI staining based flow cytometry analysis (reference value: 0.35 %); format: functional
HepG2 [22] = test: Induction of mitochondrial membrane potential loss in human HepG2 cells at 1.1 uM incubated for 48 hrs by JC-1 staining based flow cytometry analysis (reference value: 2.06 %); format: functional
HepG2 [23] = test: Induction of mitochondrial membrane potential loss in human HepG2 cells at 2.2 uM incubated for 48 hrs by JC-1 staining based flow cytometry analysis (reference value: 2.06 %); format: functional
HepG2 [24] = test: Induction of mitochondrial membrane potential loss in human HepG2 cells at 4.4 uM incubated for 48 hrs by JC-1 staining based flow cytometry analysis (reference value: 2.06 %); format: functional
HepG2 [25] = test: Antitumor activity against human HepG2 cells xenografted in athymic nude mouse assessed as inhibition of tumor growth administered intravenously once every 2 days for 19 days by caliper analysis; format: functional, cell-based; details: dose 10-20 mg/kg, time 19.0 day
HepG2 [26] = test: Antitumor activity against human HepG2 cells xenografted in athymic nude mouse assessed as inhibition of tumor growth at 20 mg/kg, iv administered once every 2 days for 19 days by caliper analysis relative to control; format: functional; details: 456 h, time 19 day
[27] = biological target: NAD(P)H dehydrogenase [quinone] 1 (Homo sapiens) (UniProt P15559); test: Activation of recombinant human C-terminal His-tagged NQO1 (1 to 274 residues) expressed in Escherichia coli assessed as cytochrome c reduction using menadione as substrate in presence of NADPH by spectrophotometry; details: filed as activator, dose 12.5-50 µM
[28] = Selectivity index, ratio of GI50 for human HepG2 cells pretreated for 1 hr with NQO1 inhibitor, dicoumarol followed by incubation with compound for 48 hrs to GI50 for human HepG2 cells measured after 48 hrs by MTT assay; format: functional
[29] = Selectivity index, ratio of GI50 for human HepG2 cells pretreated for 1 hr with ROS scavenger, N-acetyl cysteine followed by incubation with compound for 48 hrs to GI50 for human HepG2 cells measured after 48 hrs by MTT assay; format: functional
[30] = Selectivity index, ratio of GI50 for human A549 cells pretreated for 1 hr with ROS scavenger, N-acetyl cysteine followed by incubation with compound for 48 hrs to GI50 for human A549 cells measured after 48 hrs by MTT assay; format: functional
HepG2 [31] = test: Induction of ROS generation in human HepG2 cells at 5 uM incubated for 5 hrs in presence of dicoumarol by DCFH-DA staining based flow cytometry analysis; format: functional, cell-based
HepG2 [32] = test: Antitumor activity against human HepG2 cells xenografted in athymic nude mouse assessed as inhibition of tumor growth at 10 mg/kg, iv administered once every 2 days for 19 days by caliper analysis relative to control; format: functional; details: 456 h, time 19 day

- fold change (FC) [5]: > 2
- Activity [27]: Dose-dependent effect
SMILES: COc1ccc(C2CC(=O)NC3=C2C(=O)C(=O)c2ccccc23)cc1O (stereo not drawn)
- RatioGI50 [1]: 2
- Activity (HepG2 [2]): Dose-dependent effect
- Activity (HepG2 [3]): 10.85%
- viability at 2.2 µM (HepG2 [4]): 81.6%
- GI50 (MCF7): 3.06 µM
- GI50 (HepG2 [6]): 2.23 µM
- GI50 (A549 [7]): 3.13 µM
- GI50 (HepG2 [8]): 4.93 µM
- GI50 (A549 [9]): 5.3 µM
- GI50 (A549 [10]): 5.48 µM
- GI50 at 48 h [11]: 4.36 µM
- Activity (HepG2 [12]): 41.4%
- Activity (HepG2 [13]): Dose-dependent effect
- viability at 1.1 µM (HepG2 [14]): 82.4%
- Activity (HepG2 [15]): 8.9%
- Activity (HepG2 [16]): 0.77%
- viability at 2.2 µM (HepG2 [17]): 76%
- viability at 4.4 µM (HepG2 [18]): 66.5%
- Activity (HepG2 [19]): 14.96%
- Activity (HepG2 [20]): 1.07%
- Activity (HepG2 [21]): 0.69%
- Activity (HepG2 [22]): 7.42%
- Activity (HepG2 [23]): 11.03%
- Activity (HepG2 [24]): 18.12%
- TGI (HepG2 [25]): Dose-dependent effect
- inhibition in vivo at 20 mg/kg (HepG2 [26]): 50.3%
- RatioGI50 [28]: 2
- RatioGI50 [29]: 2
- RatioGI50 [30]: 2
- Activity (HepG2 [31]): inactive
- inhibition in vivo at 10 mg/kg (HepG2 [32]): 27.2%

Reference: ChEMBL document CHEMBL4765339, “Design, synthesis, and biological evaluation of 4-substituted-3,4-dihydrobenzo[h]quinoline-2,5,6(1H)-triones as NQO1-directed antitumor agents” (Eur J Med Chem, 2020)
